In publication PMC13170396 (Journal of controlled release : official journal of the …, 2025):

What was measured:
[1] = system: HCT116 and UISO-Mel29 cells; assay: Cell proliferation assay; type: cell-based, human
[2] = cited from earlier work; for clearance / elimination half-life t1/2 / volume of distribution: murine models
[3] = cited from earlier work
[4] = system: p53-positive solid tumors; conditions: clinical; cited from earlier work
[5] = system: HCT116, UISO-Mel29, CCD33Co and fibroblasts; assay: Confocal imaging of cell penetration; type: cell-based, human; conditions: AF-p28 20 μM or AF-Arg8 5 μM, 2 h, 37 °C, confocal microscopy, Fig. 2A

Compound	effect of CQ on the anti-proliferative effect of p28 ([1]; CQ 10 μM with varying concentrations of p28, 24 h, Fig. 6A, B)	cytotoxic activity in cancer cells ([1]; Fig. S4)	primary route of excretion [2]	clearance [2] [mL/min/kg]	elimination half-life t1/2 [2] [h]	volume of distribution [2] [L/kg]	water solubility [3]	adverse effects, toxicity, immunogenicity in humans [4]	cell penetration, cancer cells compared to normal cells [5]
CCN(CC)CCCC(C)Nc1ccnc2cc(Cl)ccc12 (stereo not shown) [CQ, chloroquine]	significantly enhanced the effect of p28	dose-dependent cytotoxic activity	hepatic clearance	165	46.6	667			
CSCC[C@H](NC(=O)CNC(=O)[C@H](CC(=O)O)NC(=O)[C@@H](NC(=O)[C@@H](NC(=O)[C@@H](NC(=O)CNC(=O)[C@H](CCC(N)=O)NC(=O)[C@H](CCSC)NC(=O)[C@H](CC(=O)O)NC(=O)[C@H](C)NC(=O)[C@H](C)NC(=O)[C@@H](NC(=O)[C@H](CO)NC(=O)[C@@H](N)CC(C)C)[C@@H](C)O)C(C)C)C(C)C)[C@@H](C)O)C(=O)N[C@@H](C)C(=O)N[C@@H](CO)C(=O)NCC(=O)N[C@@H](CC(C)C)C(=O)N[C@@H](CC(=O)O)C(=O)N[C@@H](CCCCN)C(=O)N[C@@H](CC(=O)O)C(=O)N[C@@H](Cc1ccc(O)cc1)C(=O)N[C@@H](CC(C)C)C(=O)N[C@@H](CCCCN)C(=O)N1CCC[C@H]1C(=O)N[C@@H](CC(=O)O)C(=O)N[C@@H](CC(=O)O)C(=O)O [p28]			renal clearance	36.7	0.06	0.29	highly water soluble	no significant adverse effects, toxicity or immunogenicity	
octaarginine [Arg8]									penetrated both cancer and normal cells
